The source of these data is ChEMBL document CHEMBL4483862, “Open-source discovery of chemical leads for next-generation chemoprotective antimalarials” (2018).

This assay has as its system Plasmodium berghei. Kind of assay: Luciferase/luciferin-expressing antifolate-resistant parasites were used to infect a culture of HepG2 cells that were pre-incubated with compounds. Infected hepatocytes emit light due to the luciferase reaction. Assay results are presented as the percent inhibition of light emission compared to control. […]. Particulars: sporozoite; for IC90: read-out: LUCIFERASE INFECTION ASSAY - IC90. The assay is classed as functional.

Where [1] appears, read: read-out: LUCIFERASE INFECTION ASSAY - IC50.

`Fc1ccc(Nc2ncnc3c2cnn3Cc2ccc(Cl)cc2)cc1`: the IC90 was 9.37 µM. Besides, under “PBLUC_HILL_SLOPE 4.8, PBLUC_R_SQUARED 0.59, read-out: LUCIFERASE INFECTION ASSAY - IC50”, the IC50 was determined as 5.93 µM.

`CC(Nc1ccc2c(c1)OC(F)(F)O2)C(=O)Nc1ccc(Cl)cn1` (stereo not drawn): the IC90 is over 10 µM. Moreover, under setting [1], the 50% inhibitory concentration (IC50) is over 10 µM.

Consider `O=c1c2ccccc2nc2c3ccccc3c(NCCCN3CCOCC3)nn12`, for which the IC90 was over 10 µM. The IC50 under setting [1] was 9.05 µM.

Consider `CC1CCc2c(sc3nc(Sc4nnnn4-c4ccccc4)nc(N)c23)C1` (stereo not drawn), for which the IC90 is over 10 µM. Also, the IC50 (PBLUC_HILL_SLOPE 2.12, PBLUC_R_SQUARED 0.375, read-out: LUCIFERASE INFECTION ASSAY - IC50) was determined as 3.69 µM.

As to `O=C(NC1CC1)c1ccc(-c2cnc3c(NCC4CC4)nccn23)cc1`, the concentration for an effect of 90% (IC90) was determined as 6.12 µM. In addition, the IC50 (HEPG2TOX_HILL_SLOPE 1.1, HEPG2TOX_R_SQUARED 0.94, PBLUC_HILL_SLOPE 4.24, PBLUC_R_SQUARED 0.447, read-out: LUCIFERASE INFECTION ASSAY - IC50) came out at 3.65 µM.

In the case of `CCCn1nc(C(=O)Nc2ccccc2N2CCc3ccccc3C2)ccc1=O`, the IC90 was over 10 µM. Moreover, under “HEPG2TOX_HILL_SLOPE 0.246, HEPG2TOX_R_SQUARED 0.177, PBLUC_HILL_SLOPE 1.82, PBLUC_R_SQUARED 0.418, read-out: LUCIFERASE INFECTION ASSAY - IC50”, the half-inhibitory concentration (IC50) amounted to 4.28 µM.

For `CC(C)CC(N)c1csc(NC(=O)Nc2ccccc2-c2ccccc2)n1` (stereo not drawn), the IC90 was 4.16 µM. In addition, for the setting “PBLUC_HILL_SLOPE 10.5, PBLUC_R_SQUARED 0.579, read-out: LUCIFERASE INFECTION ASSAY - IC50”, the IC50 came out at 3.37 µM.

Turning to `CC(C)C(C(=O)Nc1ccc(C#N)cc1)c1ccc(Cl)cc1` (stereo not drawn), the IC90 was over 10 µM. Also, the IC50 (HEPG2TOX_HILL_SLOPE 0.183, HEPG2TOX_R_SQUARED 0.415, read-out: LUCIFERASE INFECTION ASSAY - IC50) was over 10 µM.

Turning to `N#Cc1ccc(-c2cnc3cnc(-c4cccc(C(N)=O)c4)cn23)cc1`, the IC90 was found to be 8.67 µM. Moreover, the IC50 (PBLUC_HILL_SLOPE 12.9, PBLUC_R_SQUARED 0.447, read-out: LUCIFERASE INFECTION ASSAY - IC50) worked out at 7.32 µM.

Regarding `Cc1ccc(-c2nc(SCCC(N)=O)[nH]c2-c2ccc(C)cc2)cc1`, the IC90 was over 10 µM. For the same compound, the IC50 under setting [1] is over 10 µM.

In the case of `Nc1nc(CSc2nccc(C(F)(F)F)n2)nc(Nc2ccc(F)cc2)n1`, the 90% effect concentration (IC90) was over 10 µM. In addition, under setting [1], the IC50 is over 10 µM.

`Cc1cc2ccccn2c1C(=O)c1cccc2nc3ccccc3nc12`: the IC90 is over 10 µM. Further, where the note is “PBLUC_HILL_SLOPE 2.29, PBLUC_R_SQUARED 0.419, read-out: LUCIFERASE INFECTION ASSAY - IC50”, the IC50 worked out at 7.29 µM.

On to `Cc1c(-c2ccccc2)oc2c(C(=O)N(Cc3ccccc3Cl)S(=O)(=O)c3cccc(C(F)(F)F)c3)cccc2c1=O`, for which the IC90 was over 10 µM. Moreover, the IC50 (HEPG2TOX_HILL_SLOPE 8.04, HEPG2TOX_R_SQUARED 0.64, PBLUC_HILL_SLOPE 8.59, PBLUC_R_SQUARED 0.6, read-out: LUCIFERASE INFECTION ASSAY - IC50) came out at 7.82 µM.

Regarding `Cc1nn2c(nc(Sc3nnnn3C(C)C)c3ccccc32)c1Cl`, the IC90 is over 10 µM. Moreover, the IC50 (PBLUC_HILL_SLOPE 6.07, PBLUC_R_SQUARED 0.112, read-out: LUCIFERASE INFECTION ASSAY - IC50) is 8.31 µM.

As for `COc1cccc(-c2cnn3ccc(Nc4ccc(OC)nc4)nc23)c1`, the IC90 amounted to 3.86 µM. The IC50 (HEPG2TOX_HILL_SLOPE 3.92, HEPG2TOX_R_SQUARED 0.974, PBLUC_HILL_SLOPE 24.4, PBLUC_R_SQUARED 0.48, read-out: LUCIFERASE INFECTION ASSAY - IC50) amounted to 3.53 µM.

As for `O=C(Nc1ccc(-c2nc3ccccc3[nH]2)cc1)c1cnn(-c2ccccc2)c1C1CC1`, the 90% effect concentration (IC90) turned out to be 3.59 µM. The IC50 under setting [1] came out at 3.31 µM.

Consider `Oc1ccc(CN2CCN(c3ccccn3)CC2)c2cccnc12`, for which the IC90 was over 10 µM. Also, the IC50 (HEPG2TOX_HILL_SLOPE 1.46, HEPG2TOX_R_SQUARED 0.941, PBLUC_HILL_SLOPE 3.25, PBLUC_R_SQUARED 0.21, read-out: LUCIFERASE INFECTION ASSAY - IC50) is 7.97 µM.

In the case of `CCCCCCCCc1nnc(NC(=O)c2cnc(C)cn2)s1`, the IC90 came out at 9.2 µM. The IC50 (PBLUC_HILL_SLOPE 3.30, 10.9, PBLUC_R_SQUARED 0.837, 0.639, read-out: LUCIFERASE INFECTION ASSAY - IC50) worked out at 6.57 µM.

Regarding `Fc1ccc(CNc2ncnc3ccsc23)cc1`, the IC90 is over 10 µM. Also, the IC50 (HEPG2TOX_HILL_SLOPE 12.4, 1.24, HEPG2TOX_R_SQUARED 0.688, 0.830, PBLUC_HILL_SLOPE 1.50, 7.58, PBLUC_R_SQUARED 0.332, 0.354, read-out: LUCIFERASE INFECTION ASSAY - IC50) came to 6.82 µM.

As to `CC1=C(C(=O)OC2CCCCC2)C(c2ccccc2Br)CC(=O)N1` (stereo not drawn), the IC90 was over 8.41 µM. In addition, for the setting “PBLUC_HILL_SLOPE 15.2, PBLUC_R_SQUARED 0.697, read-out: LUCIFERASE INFECTION ASSAY - IC50”, the IC50 amounted to 7.66 µM.

Turning to `Cc1cccc(C)c1NC(=O)Nc1nc(C(N)Cc2ccc(C(F)(F)F)cc2)cs1` (stereo not drawn), the IC90 was over 7.6 µM. Where the note is “PBLUC_HILL_SLOPE 11.8, PBLUC_R_SQUARED 0.0609, read-out: LUCIFERASE INFECTION ASSAY - IC50”, the IC50 amounted to 6.88 µM.

Regarding `O=C(Cc1csc(-c2ccccc2Cl)n1)NCCCCOc1ccc(F)cc1`, the IC90 is over 10 µM. For the same compound, the IC50 (HEPG2TOX_HILL_SLOPE 9.37, HEPG2TOX_R_SQUARED 0.776, PBLUC_HILL_SLOPE 2.48, PBLUC_R_SQUARED 0.584, read-out: LUCIFERASE INFECTION ASSAY - IC50) stood at 5.48 µM.

Take `Cc1cccc2sc(N(Cc3ccccc3)C(=O)CN3CCN(CC(=O)N4CCCC4)CC3)nc12`: the 90% effect concentration (IC90) was determined as 6.71 µM. Besides, under “PBLUC_HILL_SLOPE 173, PBLUC_R_SQUARED 0.447, read-out: LUCIFERASE INFECTION ASSAY - IC50”, the IC50 is 6.63 µM.

Regarding `O=[N+]([O-])c1ccccc1CS(=O)(=O)c1nc2ccccc2s1`, the IC90 is over 9.87 µM. For the same compound, where the note is “HEPG2TOX_HILL_SLOPE 1.54, HEPG2TOX_R_SQUARED 0.3, PBLUC_HILL_SLOPE 1.66, PBLUC_R_SQUARED 0.0862, read-out: LUCIFERASE INFECTION ASSAY - IC50”, the IC50 turned out to be 5.91 µM.

On to `Cn1c(-c2ccccc2)c(C(=O)CSc2nnc(-c3cccs3)[nH]2)c2ccccc21`, for which the IC90 is 7.84 µM. For the setting “HEPG2TOX_HILL_SLOPE 1.76, HEPG2TOX_R_SQUARED 0.96, PBLUC_HILL_SLOPE 1.67, PBLUC_R_SQUARED 0.727, read-out: LUCIFERASE INFECTION ASSAY - IC50”, the IC50 is 2.1 µM.

With `CC(C)(C)c1ccc(-c2cnc3cnc(-c4ccc(N)nc4)cn23)cc1`, the IC90 amounted to 4.41 µM. The 50% inhibitory concentration (IC50) (PBLUC_HILL_SLOPE 8.01, PBLUC_R_SQUARED 0.801, read-out: LUCIFERASE INFECTION ASSAY - IC50) is 3.35 µM.

Consider `COc1cc(C(=O)N/N=C2\C(=O)Nc3ccc(C(C)C)cc32)cc(OC)c1OC`, for which the IC90 was over 10 µM. Besides, the IC50 (FFLUC_HILL_SLOPE 15.7, FFLUC_R_SQUARED 0.417, HEPG2TOX_HILL_SLOPE 3.31, HEPG2TOX_R_SQUARED 0.963, PBLUC_HILL_SLOPE 2.41, PBLUC_R_SQUARED 0.374, read-out: LUCIFERASE INFECTION ASSAY - IC50) was found to be 4.85 µM.

As for `COCOc1ccc(-c2cc(-c3cccc4cccnc34)cnc2N)cc1`, the IC90 was over 9.23 µM. The IC50 (HEPG2TOX_HILL_SLOPE 2.28, HEPG2TOX_R_SQUARED 0.55, PBLUC_HILL_SLOPE 1.41, PBLUC_R_SQUARED 0.714, read-out: LUCIFERASE INFECTION ASSAY - IC50) is 3.26 µM.

For the compound `COc1ccccc1/C=C(/C(=O)OCc1cn2ccccc2c1C#N)c1ccccc1`, the IC90 is over 10 µM. Also, under “PBLUC_HILL_SLOPE 16.4, PBLUC_R_SQUARED 0.216, read-out: LUCIFERASE INFECTION ASSAY - IC50”, the IC50 came out at 9.92 µM.

In the case of `CC(C)Sc1nnc(CSc2nc3ccccc3s2)n1C`, the concentration for an effect of 90% (IC90) came out at 3.94 µM. The IC50 (PBLUC_HILL_SLOPE 13.4, PBLUC_R_SQUARED 0.563, read-out: LUCIFERASE INFECTION ASSAY - IC50) turned out to be 3.35 µM.

As to `O=C(NNC(=O)c1sc(-c2ccco2)nc1-c1ccccc1)c1ccccn1`, the IC90 was determined as 3.33 µM. For the same compound, the IC50 (HEPG2TOX_HILL_SLOPE 1.58, HEPG2TOX_R_SQUARED 0.893, PBLUC_HILL_SLOPE 37.6, PBLUC_R_SQUARED 0.722, read-out: LUCIFERASE INFECTION ASSAY - IC50) amounted to 3.14 µM.

For the compound `COc1ccccc1C1=NOC(=C2Sc3ccccc3C2=O)N1`, the concentration for an effect of 90% (IC90) worked out at 4.54 µM. Also, the IC50 (PBLUC_HILL_SLOPE 8.91, PBLUC_R_SQUARED 0.334, read-out: LUCIFERASE INFECTION ASSAY - IC50) was found to be 3.55 µM.

Turning to `O=C(CSc1nnc(-c2ccco2)o1)OCc1cc(F)cc2c1OC(c1ccccc1)OC2` (stereo not drawn), the IC90 worked out at 4.11 µM. The IC50 (HEPG2TOX_HILL_SLOPE 2.76, 2.27, HEPG2TOX_R_SQUARED 0.916, 0.957, PBLUC_HILL_SLOPE 6.02, 15.8, PBLUC_R_SQUARED 0.479, 0.425, read-out: LUCIFERASE INFECTION ASSAY - IC50) stood at 3.17 µM.

As to `Fc1cccc(-c2cnc3cnc(-c4ccncc4)cn23)c1`, the IC90 is over 11.4 µM. The IC50 (HEPG2TOX_HILL_SLOPE 3.65, HEPG2TOX_R_SQUARED 0.679, PBLUC_HILL_SLOPE 2.42, PBLUC_R_SQUARED 0.708, read-out: LUCIFERASE INFECTION ASSAY - IC50) worked out at 5.64 µM.
